Measured values as given in US9522884B2, “Compositions and methods for the treatment of metabolic disorders” (CELLIXBIO PRIVATE LIMITED, priority 2012, dated 2016).

Columns and labels:
[1] = test system: STZ-diabetic rats; test: Prevention of arterial stiffening in diabetes: STZ-diabetic rats treated 8 weeks via drinking water; format: in vivo, Male Wistar rats; details: STZ-diabetic rats (DM), 1 g·L-1 in drinking water, n = 12, mean ± SEM
Experimental: (§1) Diabetes was induced in rats by a single tail vein injection with 55 mg·kg-1 steptozotocin (STZ). After induction of hyperglycaemia, animals were treated for 8 weeks with pyridoxamine (1 g·L-1 in drinking water) and Formula-I (1-2) (1 g·L-1 in drinking water) were compared with the age-matched untreated diabetic controls. Pulse wave reflection along the vasculature was derived using the impulse response function of the filtered aortic input impedance spectra.
(§2) Male Wistar rats at 2 months were randomly divided into six groups (n=12 in each group) as follows: (i) normal controls (NC); (ii) STZ-diabetic rats (DM); (iii) NC treated with PM (NC+PM); (iv) NC treated with Formula-I (1-2) (NC+Formula-I (1-2)); (v) DM treated with PM (DM+PM); and (vi) DM treated with Formula-I (1-2) (DM+Formula-I (1-2)). Diabetes was induced in animals by a single tail vein injection with 55 mg·kg-1 STZ in 0.1 M citrate buffer (pH 4.5). After confirmation of the development of hyperglycaemia (2 days later) by blood glucose determination using a sure step Test Strip, rats were randomly allocated into a vehicle-treated diabetic group, and a treatment group receiving PM in drinking water of 1 g·L-1 and Formula-I (1-2) in drinking water of 1 g·L-1. Animals were studied 8 weeks after exposure to PM to determine its effects on the pulsatile nature of blood flows in the diabetic arteries.
(§3) Effects of Diabetes and Pyridoxamine and Formula-I (1-2) on Blood Glucose Level, Body Weight, Left Ventricular Weight and Aortic Pressure Profile in Male Wistar Rats: […]

[2] = test system: normal controls (NC) rats; test: Normal control rats treated 8 weeks via drinking water (same study); format: in vivo, Male Wistar rats; details: 1 g·L-1 in drinking water, n = 12, mean ± SEM
Experimental: as §1, §2, §3

SMILES | BW (body weight) [1] [g] | Glucose [1] [mg/mL] | LVW (left ventricular weight) [1] [g] | LVW/BW [1] [mg/g] | Pd (diastolic aortic pressure) [1] [mmHg] | Pm (mean aortic pressure) [1] [mmHg] | Ps (systolic aortic pressure) [1] [mmHg] | BW (body weight) [2] [g] | Glucose [2] [mg/mL] | LVW (left ventricular weight) [2] [g] | LVW/BW [2] [mg/g] | Pd (diastolic aortic pressure) [2] [mmHg] | Pm (mean aortic pressure) [2] [mmHg] | Ps (systolic aortic pressure) [2] [mmHg]
CC/C=C\C/C=C\C/C=C\C/C=C\C/C=C\CCCC(=O)OC(C)OC(=O)NCc1c(CO)cnc(C)c1O (stereo not shown) [Formula 1(1-2)] | 299.8 ± 14.9 | 4.128 ± 0.189 | 0.599 ± 0.0349 | 1.989 ± 0.034 | 72.5 ± 1.98 | 88.9 ± 1.96 | 102.7 ± 1.098 | 418.0 ± 13.8 | 1.051 ± 0.014 | 0.789 ± 0.016 | 1.69 ± 0.04 | 76.7 ± 4.10 | 91.4 ± 3.7 | 103.1 ± 2.5
Cc1ncc(CO)c(CN)c1O [PM, pyridoxamine] | 296.3 ± 16.4 | 4.305 ± 0.209 | 0.609 ± 0.029 | 2.07 ± 0.04 | 73.2 ± 2.1 | 89.9 ± 2.0 | 103.3 ± 2.0 | 420.0 ± 11.5 | 1.004 ± 0.032 | 0.722 ± 0.023 | 1.72 ± 0.03 | 77.6 ± 3.0 | 92.5 ± 2.7 | 106.0 ± 2.5
